Tests used:
[1] = molecular target: T1, His-tagged recombinant human MER cytoplasmic domain (Homo sapiens, UniProt Q12866); assay: MER Enzyme Assay (LanthaScreen Eu Kinase Binding); settings: averaged IC50; MER 5 nM; 60-minute incubation at 22° C.; TR-FRET
T1 construct: His-tagged recombinant human MER cytoplasmic domain
T1 sequence (Q12866 527-999 limits assumed): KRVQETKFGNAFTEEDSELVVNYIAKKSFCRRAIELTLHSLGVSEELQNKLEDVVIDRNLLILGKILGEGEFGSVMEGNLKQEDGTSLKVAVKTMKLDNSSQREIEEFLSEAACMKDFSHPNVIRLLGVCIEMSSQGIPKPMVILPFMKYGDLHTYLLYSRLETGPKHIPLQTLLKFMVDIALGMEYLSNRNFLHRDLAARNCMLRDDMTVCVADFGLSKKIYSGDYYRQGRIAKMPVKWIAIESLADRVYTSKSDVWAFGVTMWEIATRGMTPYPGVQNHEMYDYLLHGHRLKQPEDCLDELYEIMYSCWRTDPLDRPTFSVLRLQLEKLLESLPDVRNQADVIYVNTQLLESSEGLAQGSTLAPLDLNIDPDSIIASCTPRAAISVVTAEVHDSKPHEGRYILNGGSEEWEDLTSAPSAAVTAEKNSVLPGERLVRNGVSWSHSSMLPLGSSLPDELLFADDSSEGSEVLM
Experimental: Compounds disclosed herein were screened for their ability to inhibit […] kinase using Invitrogen's LanthaScreen™Eu Kinase Binding technology. His-tagged recombinant human MER cytoplasmic domain (5 nM) was incubated with 20 nM Alexa-Fluor® Tracer 236 (PR9078A), 2 nM biotinylated anti-His (Cat. No. M4408), and 2 nM europium-labeled Streptavidin (Cat. No. PV5899) along with test compound in a buffer consisting of 25 mM HEPES, pH 7.4, 10 mM MgCl 2, 0.01% Triton X-100, and 2% DMSO. Compounds were typically prepared in a threefold serial dilution in DMSO and added to the assay to give the appropriate final concentration. After a 60-minute incubation at 22° C., the reaction was measured using a PerkinElmer EnVision multimode plate reader via TR-FRET dual wavelength detection, and the percent of control (POC) was calculated using a ratiometric emission factor. […] The POC values are fit to a 4 parameter logistic curve and the IC50 value is point where the curve crosses 50 POC.

human MET kinase D1228N = molecular target: T2, human MET kinase D1228N (Homo sapiens, UniProt P08581, D1228N); assay: c-Met Enzyme Assay, D1228N mutant; type: binding; settings: averaged IC50; D1228N 2 nM; 60-minute incubation at 22° C.; read-out: D1228 N IC50
T2 construct: GST-tagged recombinant human MET kinase domain; purchased Signal Chem
T2 sequence (P08581 1078-1345 D1228N): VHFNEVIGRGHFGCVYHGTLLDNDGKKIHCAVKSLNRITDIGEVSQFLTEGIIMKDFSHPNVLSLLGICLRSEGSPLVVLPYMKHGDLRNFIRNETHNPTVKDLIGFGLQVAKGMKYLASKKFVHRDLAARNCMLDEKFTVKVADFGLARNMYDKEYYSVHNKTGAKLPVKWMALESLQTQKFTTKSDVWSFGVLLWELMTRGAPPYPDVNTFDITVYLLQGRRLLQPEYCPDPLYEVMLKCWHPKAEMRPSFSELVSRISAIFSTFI
Experimental: (§1) The affinity of compound binding to wild type and mutant human MET kinases was measured using Invitrogen's LanthaScreen™ Eu Kinase Binding technology. Briefly, GST-tagged recombinant human MET kinase domain from Signal Chem (see Table 8 below for concentration in assay) was incubated with 50 nM Alexa-Fluor® Tracer 236 (Invitrogen Cat No. PR9078A) and 2 nM Europium-anti-GST (Invitrogen Cat. No. A15116) along with test compound in a buffer consisting of 25 mM HEPES, pH 7.4, 10 mM MgCl2, 0.01% Triton X-100, 1mM DTT, and 2% DMSO. Compounds were typically prepared in a three-fold serial dilution in DMSO and added to the assay to give the appropriate final concentration. After a 60-minute incubation at 22° C., the reaction was measured using a PerkinElmer EnVision multimode plate reader via TR-FRET dual wavelength detection, and the percent of control (POC) calculated using a ratiometric emission factor. […] The POC values were fit to a 4 parameter logistic curve and the IC50 value is point where the curve crosses 50 POC.

human MET kinase L1195V = molecular target: T3, human MET kinase L1195V (Homo sapiens, UniProt P08581, L1195V); assay: c-Met Enzyme Assay, L1195V mutant; type: binding; settings: averaged IC50; L1195V 10 nM; 60-minute incubation at 22° C.
T3 construct: GST-tagged recombinant human MET kinase domain; purchased Signal Chem
T3 sequence (P08581 1078-1345 L1195V limits assumed): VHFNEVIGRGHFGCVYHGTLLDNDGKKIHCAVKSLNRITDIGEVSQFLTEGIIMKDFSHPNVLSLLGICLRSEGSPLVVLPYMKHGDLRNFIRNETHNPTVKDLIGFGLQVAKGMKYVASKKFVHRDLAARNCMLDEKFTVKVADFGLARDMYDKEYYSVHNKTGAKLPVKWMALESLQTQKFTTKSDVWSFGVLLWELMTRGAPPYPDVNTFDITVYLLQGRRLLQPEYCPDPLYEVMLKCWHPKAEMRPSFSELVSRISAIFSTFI
Experimental: as §1

human MET kinase Y1230H = molecular target: T4, human MET kinase Y1230H (Homo sapiens, UniProt P08581, Y1230H); assay: c-Met Enzyme Assay, Y1230H mutant; type: binding; settings: averaged IC50; Y1230H 5 nM; 60-minute incubation at 22° C.; read-out: Y1230 H IC50
T4 construct: GST-tagged recombinant human MET kinase domain; purchased Signal Chem
T4 sequence (P08581 1078-1345 Y1230H): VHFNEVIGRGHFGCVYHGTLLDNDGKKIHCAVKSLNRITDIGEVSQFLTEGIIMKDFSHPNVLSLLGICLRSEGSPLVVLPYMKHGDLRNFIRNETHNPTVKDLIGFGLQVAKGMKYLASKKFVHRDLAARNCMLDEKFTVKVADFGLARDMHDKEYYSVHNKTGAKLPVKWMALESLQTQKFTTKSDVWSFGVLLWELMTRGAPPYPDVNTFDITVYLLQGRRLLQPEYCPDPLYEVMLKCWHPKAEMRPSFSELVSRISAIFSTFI
Experimental: as §1

Structure (SMILES)	IC50 [1] [nM]	IC50 (human MET kinase D1228N) [nM]	IC50 (human MET kinase L1195V) [nM]	IC50 (human MET kinase Y1230H) [nM]
COc1cc2nccc(Oc3ccc(NC(=O)c4cn(C(C)C)cc(-c5ccc(F)cc5)c4=O)nc3)c2cc1OC [Example 1]	3	3.4	7.1	2.9
COc1cc2nccc(Oc3ccc(NC(=O)c4cn(C)cc(-c5ccc(F)cc5)c4=O)nc3)c2cc1OC [Example 2]	3	29.3	87.1	18.2
CCn1cc(C(=O)Nc2ccc(Oc3ccnc4cc(OC)c(OC)cc34)cn2)c(=O)c(-c2ccc(F)cc2)c1 [Example 3]	3	7.4	15.3	6.4
COc1cc2nccc(Oc3ccc(NC(=O)c4cn(C(C)C)cc(-c5ccc(F)cc5F)c4=O)nc3)c2cc1OC [Example 4]	2	6.5	21.9	4.9
COc1cc2nccc(Oc3ccc(NC(=O)c4cn(C(C)C)cc(-c5ccc(Cl)cc5)c4=O)nc3)c2cc1OC [Example 5, 5-(4-chlorophenyl)-N-(5-((6,7-dimethoxyquinolin-4-yl)oxy)pyridin-2-yl)-1-isopropyl-4-oxo-1,4-dihydropyridine-3-carboxamide]	4	16.1	9.8	16.6
COc1cc2nccc(Oc3ccc(NC(=O)c4cn(C(C)C)cc(-c5ccc(F)c(F)c5)c4=O)nc3)c2cc1OC [Example 6]	5	24.2	62.1	24.2
COCCn1cc(C(=O)Nc2ccc(Oc3ccnc4cc(OC)c(OC)cc34)cn2)c(=O)c(-c2ccc(F)cc2)c1 [Example 7, N-(5((6,7-dimethoxyquinolin-4-yl)oxy)pyridin-2-yl)-5-(4-fluorophenyl)-1-(2-methoxyethyl)-4-oxo-1,4-dihydropyridine-3-carboxamide]	3	6.4	7.3	5.4
COc1cc2nccc(Oc3ccc(NC(=O)c4cn(CC5CCOCC5)cc(-c5ccc(F)cc5)c4=O)nc3)c2cc1OC [Example 8, N-(5-((6,7-dimethoxyquinolin-4-yl)oxy)pyridin-2-yl)-5-(4-fluorophenyl)-4-oxo-1-((tetrahydro-2H-pyran-4-yl)methyl)-1,4-dihydropyridine-3-carboxamide]	4	10.7	29.1	8.6
COc1cc2nccc(Oc3ccc(NC(=O)c4cn(CC(C)(C)O)cc(-c5ccc(F)cc5)c4=O)nc3)c2cc1OC [Example 9, N-(5-((6,7-dimethoxyquinolin-4-yl)oxy)pyridin-2-yl)-5-(4-fluorophenyl)-1-(2-hydroxy-2-methylpropyl)-4-oxo-1,4-dihydropyridine-3-carboxamide]	3	15.8	47.7	13.1
CCCn1cc(C(=O)Nc2ccc(Oc3ccnc4cc(OC)c(OC)cc34)cn2)c(=O)c(-c2ccc(F)cc2)c1 [Example 10, N-(5((6,7-dimethoxyquinolin-4-yl)oxy)pyridin-2-yl)-5-(4-fluorophenyl)-4-oxo-1-propyl-1,4-dihydropyridine-3-carboxamide]	8	4.1	9.7	6.1
COc1cc2nccc(Oc3ccc(NC(=O)c4cn(CC(C)C)cc(-c5ccc(F)cc5)c4=O)nc3)c2cc1OC [Example 11, N-(5-((6,7-dimethoxyquinolin-4-yl)oxy)pyridin-2-yl)-5-(4-fluorophenyl)-1-isobutyl-4-oxo-1,4-dihydropyridine-3-carboxamide]	16	9.4	21.4	9.3
COc1cc2nccc(Oc3ccc(NC(=O)c4cn(C5CCOCC5)cc(-c5ccc(F)cc5)c4=O)nc3)c2cc1OC [Example 12, N-(5((6,7-dimethoxyquinolin-4-yl)oxy)pyridin-2-yl)-5-(4-fluorophenyl)-4-oxo-1-(tetrahydro-2H-pyran-4-yl)-1,4-dihydropyridine-3-carboxamide]	4	9.7	33	5.4
COc1cc2nccc(Oc3ccc(NC(=O)c4cn(CC(=O)N(C)C)cc(-c5ccc(F)cc5F)c4=O)nc3)c2cc1OC [Example 13, 5-(2,4-difluorophenyl)-N-(5((6,7-dimethoxyquinolin-4-yl)oxy)pyridin-2-yl)-1-(2-(dimethylamino)-2-oxoethyl)-4-oxo-1,4-dihydropyridine-3-carboxamide]	5	11.6	83.8	5.7
COc1cc2nccc(Oc3ccc(NC(=O)c4cn(CC(=O)N5CCCC5)cc(-c5ccc(F)cc5F)c4=O)nc3)c2cc1OC [Example 14]	12	30.6	187	22.3
COc1cc2nccc(Oc3ccc(NC(=O)c4cn(CC(=O)N5CCOCC5)cc(-c5ccc(F)cc5F)c4=O)nc3)c2cc1OC [Example 15, 5-(2,4-difluorophenyl)-N-(5-((6,7-dimethoxyquinolin-4-yl)oxy)pyridin-2-yl)-1-(2-morpholino-2-oxoethyl)-4-oxo-1,4-dihydropyridine-3-carboxamide]	29	73.7	61.4	37.5
CCC(CC)n1cc(C(=O)Nc2ccc(Oc3ccnc4cc(OC)c(OC)cc34)cn2)c(=O)c(-c2ccc(F)cc2F)c1 [Example 16, 5-(2,4-difluorophenyl)-N-(5-((6,7-dimethoxyquinolin-4yl)oxy)pyridin-2-yl)-4-oxo-1-(pentan-3-yl)-1,4-dihydropyridine-3-carboxamide]	9	8.1	34.6	7.7
COc1cc2nccc(Oc3ccc(NC(=O)c4c[nH]cc(-c5ccc(F)cc5)c4=O)nc3)c2cc1OC [Example 26, N-(5-((6,7-dimethoxyquinolin-4yl)oxy)pyridin-2-yl)-5-(4-fluorophenyl)-4-oxo-1,4-dihydropyridine-3-carboxamide]	5	19.2		17
COc1cc2nccc(Oc3ccc(NC(=O)c4cn(C(C)C)c(C(C)C)c(-c5ccc(F)cc5)c4=O)nc3)c2cc1OC [Example 38, N-(5-((6,7-dimethoxyquinolin-4yl)oxy)pyridin-2-yl)-5-(4-fluorophenyl)-1,6-diisopropyl-4-oxo-1,4-dihydropyridine-3-carboxamide]	6			
COc1cc2nc(C)cc(Oc3ccc(NC(=O)c4cn(C(C)C)cc(-c5ccc(F)cc5)c4=O)nc3)c2cc1OC [Example 53, N-(5-((6,7-dimethoxy-2-methylquinolin-4-yl)oxy)pyridin-2-yl)-5-(4-fluorophenyl)-1-isopropyl-4-oxo-1,4-dihydropyridine-3-carboxamide]	950			1670
COc1cc2ncc(C#N)c(Oc3ccc(NC(=O)c4cn(C(C)C)cc(-c5ccc(F)cc5)c4=O)nc3)c2cc1OC [Example 57, N-(5-((3-cyano-6,7-dimethoxyquinolin-4-yl)oxy)pyridin-2-yl)-5-(4-fluorophenyl)-1-isopropyl-4-oxo-1,4-dihydropyridine-3-carboxamide]	29	1060		789
